Experimental data from ChEMBL document CHEMBL5380848, “Novel Benzo Five-Membered Heterocycle Derivatives as P-Glycoprotein Inhibitors: Design, Synthesis, Molecular Docking, and Anti-Multidrug Resistance Activity” (J Med Chem, 2023).
Calls of active or inactive are those of the source. The rule behind the calls is not given here.

Assays:
[1] = target: T1, ATP-dependent translocase ABCB1 (Homo sapiens, UniProt P08183); assay: Inhibition of P-gp-mediated multidrug resistance in doxorubicin-resistant human MCF7/ADR cells assessed as fold reversal of resistance by measuring doxorubicin IC50 incubated for 48 hrs by CCK-8 assay relative to doxorubicin IC50 in absence of compound; format: cell-based; details: nci-adr-res
NCI/ADR-RES [2] = assay: Cytotoxicity against doxorubicin-resistant human MCF-7/ADR cells assessed as inhibition rate at 5 uM measured after […] hrs by CCK-8 assay relative to control; format: functional
MCF7 = assay: Cytotoxicity against human MCF7 cells assessed as inhibition rate at 5 uM measured after […] hrs by CCK-8 assay relative to control; format: functional
[3] = Toxicity in BALB/c mouse xenografted with doxorubicin-resistant human MCF-7/ADR cells assessed as liver morphological changes at 10 mg/kg for every 2 days once injected through abdominal cavity for 14 days by hematoxylin and eosin staining based analysis; format: organism-based; details: in vivo, ip, 336 h, time 14 day
NCI/ADR-RES [4] = assay: Effect on P-glycoprotein expression in doxorubicin-resistant human MCF-7/ADR cells at 2.5 to 10 uM incubated for 48 hrs by Western blotting analysis; format: functional, cell-based; details: dose 2.5-10 µM
NCI/ADR-RES [5] = assay: Effect on ABCC1 gene expression in doxorubicin-resistant human MCF-7/ADR cells at 5 uM incubated for 12 hrs; format: functional, cell-based
[6] = target: T1, ATP-dependent translocase ABCB1; assay: Binding affinity to P-glycoprotein in doxorubicin-resistant human MCF-7/ADR cells assessed as thermal stability measured 40 to 60 degC at 0.5 to 2.5 uM incubated for 30 mins by CETSA; format: cell-based; details: nci-adr-res, 0.5 h, dose 0.5-2.5 µM
NCI/ADR-RES [7] = assay: Effect on ABCB6 gene expression in doxorubicin-resistant human MCF-7/ADR cells at 5 uM incubated for 12 hrs; format: functional, cell-based
NCI/ADR-RES [8] = assay: Effect on ABCC4 gene expression in doxorubicin-resistant human MCF-7/ADR cells at 5 uM incubated for 12 hrs; format: functional, cell-based
NCI/ADR-RES [9] = assay: Effect on ABCD4 gene expression in doxorubicin-resistant human MCF-7/ADR cells at 5 uM incubated for 12 hrs; format: functional, cell-based
[10] = Toxicity in BALB/c mouse xenografted with doxorubicin-resistant human MCF-7/ADR cells assessed as lung morphological changes at 10 mg/kg for every 2 days once injected through abdominal cavity for 14 days by hematoxylin and eosin staining based analysis; format: organism-based; details: in vivo, ip, 336 h, time 14 day
NCI/ADR-RES [11] = assay: Effect on ABCA2 gene expression in doxorubicin-resistant human MCF-7/ADR cells at 5 uM incubated for 12 hrs; format: functional, cell-based
[12] = Toxicity in BALB/c mouse xenografted with doxorubicin-resistant human MCF-7/ADR cells assessed as heart morphological changes at 10 mg/kg for every 2 days once injected through abdominal cavity for 14 days by hematoxylin and eosin staining based analysis; format: organism-based; details: in vivo, ip, 336 h, time 14 day
NCI/ADR-RES [13] = assay: In vivo resistance reversal activity in doxorubicin-resistant human MCF-7/ADR cells xenografted in BALB/c mouse model assessed as reduction in tumor weight at 10 mg/kg for every 2 days once injected through abdominal cavity for 14 days; format: functional, organism-based; details: time 14.0 day
NCI/ADR-RES [14] = assay: Effect on ABCF2 gene expression in doxorubicin-resistant human MCF-7/ADR cells at 5 uM incubated for 12 hrs; format: functional, cell-based
NCI/ADR-RES [15] = assay: In vivo resistance reversal activity in doxorubicin-resistant human MCF-7/ADR cells xenografted in BALB/c mouse model assessed as reduction in tumor volume at 10 mg/kg for every 2 days once injected through abdominal cavity for 14 days; format: functional, organism-based; details: time 14.0 day
[16] = target: T1, ATP-dependent translocase ABCB1; assay: Inhibition of P-glycoprotein mediated Rhodamine-123 efflux in doxorubicin-resistant human MCF-7/ADR cells assessed as fluorescence intensity of rhodamine-123 accumulation incubated for 30 mins by flow cytometry analysis; format: cell-based; details: nci-adr-res, 0.5 h, at 2.5 to 10 µM, dose 2.5-10 µM
NCI/ADR-RES [17] = assay: In vivo resistance reversal activity in doxorubicin-resistant human MCF-7/ADR cells xenografted in BALB/c mouse model assessed as potentiation of doxorubicin antitumor effect by measuring reduction in tumor volume at 10 mg/kg for every 2 days once injected through abdominal cavity for 14 days; format: functional, organism-based; details: time 14.0 day
NCI/ADR-RES [18] = assay: In vivo resistance reversal activity in doxorubicin-resistant human MCF-7/ADR cells xenografted in BALB/c mouse model assessed as potentiation of doxorubicin antitumor effect by measuring reduction in tumor weight at 10 mg/kg for every 2 days once injected through abdominal cavity for 14 days; format: functional, organism-based; details: time 14.0 day
NCI/ADR-RES [19] = assay: Effect on ABCG2 gene expression in doxorubicin-resistant human MCF-7/ADR cells at 5 uM incubated for 12 hrs; format: functional, cell-based
[20] = Toxicity in BALB/c mouse xenografted with doxorubicin-resistant human MCF-7/ADR cells assessed as kidney morphological changes at 10 mg/kg for every 2 days once injected through abdominal cavity for 14 days by hematoxylin and eosin staining based analysis; format: organism-based; details: in vivo, ip, 336 h, time 14 day
[21] = Toxicity in BALB/c mouse xenografted with doxorubicin-resistant human MCF-7/ADR cells assessed as body weight change at 10 mg/kg for every 2 days once injected through abdominal cavity for 14 days; format: organism-based; details: in vivo, ip, 336 h, time 14 day
[22] = Toxicity in BALB/c mouse xenografted with doxorubicin-resistant human MCF-7/ADR cells assessed as spleen morphological changes at 10 mg/kg for every 2 days once injected through abdominal cavity for 14 days by hematoxylin and eosin staining based analysis; format: organism-based; details: in vivo, ip, 336 h, time 14 day

T1 sequence (P08183 whole entry): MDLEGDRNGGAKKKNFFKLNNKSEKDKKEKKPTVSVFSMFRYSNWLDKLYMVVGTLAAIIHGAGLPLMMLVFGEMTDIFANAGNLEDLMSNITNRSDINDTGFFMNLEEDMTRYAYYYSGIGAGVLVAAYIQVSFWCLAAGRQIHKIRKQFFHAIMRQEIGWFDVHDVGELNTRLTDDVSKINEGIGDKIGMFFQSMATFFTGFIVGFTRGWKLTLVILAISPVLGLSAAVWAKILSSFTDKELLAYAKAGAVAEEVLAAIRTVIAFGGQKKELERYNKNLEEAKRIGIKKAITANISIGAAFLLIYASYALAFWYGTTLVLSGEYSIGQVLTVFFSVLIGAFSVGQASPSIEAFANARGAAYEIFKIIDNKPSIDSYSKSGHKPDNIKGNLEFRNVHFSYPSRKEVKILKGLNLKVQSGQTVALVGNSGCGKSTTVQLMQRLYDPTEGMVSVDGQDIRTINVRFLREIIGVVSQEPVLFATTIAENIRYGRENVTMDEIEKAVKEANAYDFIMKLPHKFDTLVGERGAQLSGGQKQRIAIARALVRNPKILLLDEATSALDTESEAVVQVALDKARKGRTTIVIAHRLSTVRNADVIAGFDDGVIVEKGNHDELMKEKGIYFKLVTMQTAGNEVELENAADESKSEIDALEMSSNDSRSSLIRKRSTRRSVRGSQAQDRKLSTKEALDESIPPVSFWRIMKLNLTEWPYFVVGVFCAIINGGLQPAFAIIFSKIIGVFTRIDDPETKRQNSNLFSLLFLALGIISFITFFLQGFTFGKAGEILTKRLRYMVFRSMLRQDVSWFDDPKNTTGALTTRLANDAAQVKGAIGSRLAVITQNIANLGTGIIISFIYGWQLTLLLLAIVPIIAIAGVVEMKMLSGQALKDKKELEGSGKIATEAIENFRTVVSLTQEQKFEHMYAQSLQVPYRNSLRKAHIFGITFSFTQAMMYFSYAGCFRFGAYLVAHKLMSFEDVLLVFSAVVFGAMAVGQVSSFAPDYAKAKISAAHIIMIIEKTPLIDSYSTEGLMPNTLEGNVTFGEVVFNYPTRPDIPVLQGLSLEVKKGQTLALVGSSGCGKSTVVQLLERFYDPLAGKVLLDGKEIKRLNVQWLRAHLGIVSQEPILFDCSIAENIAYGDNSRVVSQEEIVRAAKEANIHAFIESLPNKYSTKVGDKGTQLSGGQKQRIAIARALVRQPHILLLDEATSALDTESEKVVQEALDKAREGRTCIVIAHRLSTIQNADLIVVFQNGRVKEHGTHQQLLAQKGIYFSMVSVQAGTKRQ

Compound | fold change (FC) [1] | inhibition at 5 µM (NCI/ADR-RES [2]) | inhibition at 5 µM (MCF7) | also measured
COc1cc2c(cc1OC)CN(C(=O)c1cc3cc(-c4ccc(NC(=O)c5ccc(OC(C)(C)C)cc5)cc4)ccc3[nH]1)CC2 | 96.6 | 8.8% | 15.9% | –
COc1cc2c(cc1OC)CN(C(=O)c1cc3cc(-c4ccc(NC(=O)c5ccc(Cl)cc5)cc4)ccc3n1Cc1ccc(F)cc1)CC2 | 53.5 | 16.6% | 11.2% | –
COc1cc2c(cc1OC)CN(C(=O)c1cc3cc(-c4ccc(NC(=O)c5ccc(Cl)cc5)cc4)ccc3n1Cc1ccc(Cl)cc1)CC2 | 25.9 | -3.3% | 2.6% | –
COc1cc2c(cc1OC)CN(C(=O)c1cc3cc(-c4ccc(NC(=O)c5cc(OC)c(OC)c(OC)c5)cc4)ccc3[nH]1)CC2 | 93.6 | 10.6% | 14.1% | –
COc1cc2c(cc1OC)CN(C(=O)c1cc3cc(-c4ccc(NC(=O)c5ccc(Cl)cc5)cc4)ccc3n1Cc1cccc(Br)c1)CC2 | 118.6 | 21.6% | 7.9% | –
COc1cc2c(cc1OC)CN(C(=O)c1cc3cc(-c4ccc(NC(=O)c5ccc(Br)cc5)cc4)ccc3[nH]1)CC2 | 201.7 | 19.1% | 10.2% | –
COc1cc2c(cc1OC)CN(C(=O)c1cc3cc(-c4ccc(NC(=O)c5ccc(C(F)(F)F)cc5)cc4)ccc3[nH]1)CC2 | 1717 | 22% | 11.8% | –
COc1cc2c(cc1OC)CN(C(=O)c1cc3cc(-c4ccc(NC(=O)c5ccc(Cl)cc5)cc4)ccc3n1Cc1ccccc1)CC2 | 55.4 | 6.9% | 10.1% | –
COc1cccc(Cn2c(C(=O)N3CCc4cc(OC)c(OC)cc4C3)cc3cc(-c4ccc(NC(=O)c5ccc(Cl)cc5)cc4)ccc32)c1 | 26.5 | 5% | 5% | –
COc1cc2c(cc1OC)CN(C(=O)c1cc3cc(-c4ccc(NC(=O)c5ccc(Cl)cc5)cc4)ccc3[nH]1)CC2 | 6011 | 25% | 21.7% | Activity [3]: Non-Toxic; Activity (NCI/ADR-RES [4]): inactive; Activity (NCI/ADR-RES [5]): inactive; Activity [6]: Active; Activity (NCI/ADR-RES [7]): inactive; Activity (NCI/ADR-RES [8]): inactive; Activity (NCI/ADR-RES [9]): inactive; Activity [10]: Non-Toxic; Activity (NCI/ADR-RES [11]): inactive; Activity [12]: Non-Toxic; Activity (NCI/ADR-RES [13]): inactive; Activity (NCI/ADR-RES [14]): inactive; Activity (NCI/ADR-RES [15]): inactive; inhibition (INH) [16]: Dose-Dependent Effect; Activity (NCI/ADR-RES [17]): Active; Activity (NCI/ADR-RES [18]): Active; Activity (NCI/ADR-RES [19]): inactive; Activity [20]: Non-Toxic; Activity [21]: Non-Toxic; Activity [22]: Non-Toxic
COc1cc2c(cc1OC)CN(CCc1ccc(NC(=O)c3cc(OC)c(OC)cc3NC(=O)c3cnc4ccccc4c3)cc1)CC2 | 283.2 | 48.9% | 42.8% | –
CCOc1ccc(C(=O)Nc2ccc(-c3ccc4[nH]c(C(=O)N5CCc6cc(OC)c(OC)cc6C5)cc4c3)cc2)cc1 | 333 | 7.7% | 15.4% | –
COc1cc2c(cc1OC)CN(C(=O)c1cc3cc(-c4ccc(NC(=O)c5ccc(I)cc5)cc4)ccc3[nH]1)CC2 | 83 | 12.9% | 15.4% | –
COc1cccc(C(=O)Nc2ccc(-c3ccc4[nH]c(C(=O)N5CCc6cc(OC)c(OC)cc6C5)cc4c3)cc2)c1 | 325.9 | 18.9% | 11.4% | –
COc1ccc(C(=O)Nc2ccc(-c3ccc4[nH]c(C(=O)N5CCc6cc(OC)c(OC)cc6C5)cc4c3)cc2)cc1OC | 486.9 | 37.2% | 20.6% | –
COc1cc2c(cc1OC)CN(C(=O)c1cc3cc(-c4ccc(NC(=O)c5ccc(Oc6ccccc6)cc5)cc4)ccc3[nH]1)CC2 | 23 | 15.5% | 19% | –
